Results taken from patent US9763445B2, “Safened herbicidal compositions comprising a pyridine carboxylic acid herbicide” (Dow AgroSciences, LLC, priority 2014, dated 2017).

What was measured:
kochia (KCHSC) = assay: Postemergence greenhouse trial, % visual injury on kochia; assay type: in vivo, Kochia scoparia; settings: KCHSC; for % visual injury, Ob: CQC-m 0 g/ha; for pest or weed control at 4.375 g/ha / pest or weed control at 8.75 g/ha / pest or weed control at 17.5 g/ha / pest or weed control at 35 g/ha / pest or weed control at 70 g/ha: Bassia scoparia, post-emergence, applied alone, read-out: % visual injury, Ob
Protocol: (§1) Seeds of the desired test plant species were planted in Sun Gro MetroMix® 306 planting mixture, which typically has a pH of 6.0 to 6.8 and an organic matter content of about 30 percent, in plastic pots with a surface area of 103.2 square centimeters (cm^2). When required to ensure good germination and healthy plants, a fungicide treatment and/or other chemical or physical treatment was applied. The plants were grown for 7-36 days (d) in a greenhouse with an approximate 14-hour (h) photoperiod which was maintained at about 23° C. during the day and 22° C. during the night. Nutrients and water were added on a regular basis and supplemental lighting was provided with overhead metal halide 1000-Watt lamps as necessary. The plants were employed for testing when they reached the second or third true leaf stage.
(§2) Weighed amounts of technical material were dissolved in a volume of 97:3 volume per volume (v/v) acetone/dimethyl sulfoxide (DMSO) to stock solutions. […] The concentrated stock solutions were diluted with an aqueous mixture of 1.5% v/v of Agri-dex crop oil concentrate to provide the appropriate application rates. Compound requirements are based upon a 12 milliliter (mL) application volume at a rate of 187 liters per hectare (L/ha). Stocks solutions of the safeners were prepared following the same procedure. Spray solutions of the safeners and experimental compound mixtures were prepared by adding the stock solutions to the appropriate amount of dilution solution to form a 12 mL spray solution in two-way combinations. Formulated compounds were applied to the plant material with an overhead Mandel track sprayer equipped with 8002E nozzles calibrated to deliver 187 L/ha over an application area of 0.503 square meters (m^2) at a spray height of 18 inches (43 centimeters (cm)) above average plant canopy. Control plants were sprayed in the same manner with the solvent blank. All herbicide application (component a) rates are in g ae/ha and all safener (component b) rates are in g ai/ha.
(§3) The treated plants and control plants were placed in a greenhouse as described above and watered by sub-irrigation to prevent wash-off of the test compounds. After 20-22 d, the condition of the test plants as compared with that of the control plants was determined visually and scored on a scale of 0 to 100 percent where 0 corresponds to no injury and 100 corresponds to complete kill. Colby's equation was used to determine the herbicidal effects expected from the mixtures. […]

wild mustard (SINAR) = assay: Postemergence greenhouse trial, % visual injury on wild mustard; assay type: in vivo, Sinapis arvensis; settings: SINAR; for % visual injury, Ob: CQC-m 0 g/ha; for pest or weed control at 4.375 g/ha / pest or weed control at 8.75 g/ha / pest or weed control at 17.5 g/ha / pest or weed control at 35 g/ha / pest or weed control at 70 g/ha: Brassica, post-emergence, applied alone, read-out: % visual injury, Ob
Protocol: as §1, §2, §3

[1] = test system: bird's-eye speedwell (VERPE); assay: Postemergence greenhouse trial, % visual injury on bird's-eye speedwell; assay type: in vivo, Veronica persica; settings: VERPE, CQC-m 0 g/ha
Protocol: as §1, §2, §3

spring barley (HORVS) = assay: Postemergence greenhouse trial, % visual injury on spring barley; assay type: in vivo, Hordeum vulgare; settings: HORVS
Protocol: as §1, §2
The treated plants and control plants were placed in a greenhouse as described above and watered by sub-irrigation to prevent wash-off of the test compounds. After 20-22 d, the condition of the test plants as compared with that of the control plants was determined visually and scored on a scale of 0 to 100 percent where 0 corresponds to no injury and 100 corresponds to complete kill. The condition of the test plants was compared with that of the control plants as determined visually and scored on a scale of 0 to 100 percent, where 0 corresponds to no injury and 100 corresponds to complete kill. Colby's equation was used to determine the herbicidal effects expected from the mixtures.
The safener cloquintocet-mexyl was combined with compound 1, compound 2, compound 3, compound 7, compound 8, compound 9, compound 10, compound 11, compound 12, compound 13, compound 14, compound 15, compound 16, compound 17, compound 18, compound 19, and compound 20, and applied to spring wheat (TRZAS), winter wheat (TRZAW), and spring barley (HORVS) and the phytotoxicity of the herbicidal compositions was measured. […]

Russian thistle (SASKR) = assay: Postemergence greenhouse trial, % visual injury on Russian thistle; assay type: in vivo, Salsola kali; settings: SASKR
pigweed (AMARE) = assay: Postemergence greenhouse trial, % visual injury on pigweed; assay type: in vivo, Amaranthus retroflexus; settings: Amaranthus retroflexus, post-emergence, AMARE, applied alone, read-out: % visual injury, Ob
Method in brief: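 Postemergence greenhouse spray (187 L/ha, 1.5% v/v Agri-dex in water, acetone/DMSO stocks) on plants at second–third true leaf stage, ~23/22 °C, 14 h photoperiod; herbicides in g ae/ha, safener cloquintocet-mexyl in g ai/ha. Visual injury 0–100% versus solvent-blank controls after 20–22 d; Colby's equation gave expected mixture effects.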

[2] = compound 4.375 g/ha, CQC-m 0 g/ha
[3] = compound 8.75 g/ha, CQC-m 0 g/ha
[4] = compound 17.5 g/ha, CQC-m 0 g/ha

Compound: COc1c(C(=O)O)nc(-c2ccc3cc[nH]c3c2F)c(F)c1N [compound 13]
- % visual injury, Ob (kochia (KCHSC); compound 4.375 g/ha): 55%
- % visual injury, Ob (kochia (KCHSC); compound 8.75 g/ha): 84%
- % visual injury, Ob (kochia (KCHSC); compound 17.5 g/ha): 89%
- % visual injury, Ob (kochia (KCHSC); compound 35 g/ha): 92%
- % visual injury, Ob (kochia (KCHSC); compound 70 g/ha): 93%
- % visual injury, Ob (wild mustard (SINAR); compound 4.375 g/ha): 95%
- % visual injury, Ob (wild mustard (SINAR); compound 8.75 g/ha): 100%
- % visual injury, Ob (wild mustard (SINAR); compound 17.5 g/ha): 100%
- % visual injury, Ob (wild mustard (SINAR); compound 35 g/ha): 100%
- % visual injury, Ob (wild mustard (SINAR); compound 70 g/ha): 100%
- % visual injury, Ob ([1]; compound 4.375 g/ha): 85%
- % visual injury, Ob ([1]; compound 8.75 g/ha): 93%
- % visual injury, Ob ([1]; compound 17.5 g/ha): 98%
- % visual injury, Ob ([1]; compound 35 g/ha): 98%
- % visual injury, Ob ([1]; compound 70 g/ha): 100%
- % visual injury, Ob (spring barley (HORVS); [2]): 30%
- % visual injury, Ob (spring barley (HORVS); [3]): 38%
- % visual injury, Ob (spring barley (HORVS); [4]): 55%
- % visual injury, Ob (spring barley (HORVS); compound 35 g/ha, CQC-m 0 g/ha): 64%
- % visual injury, Ob (spring barley (HORVS); compound 70 g/ha, CQC-m 0 g/ha): 73%
- % visual injury, Ob (Russian thistle (SASKR); [2]): 50%
- % visual injury, Ob (Russian thistle (SASKR); [3]): 65%
- % visual injury, Ob (Russian thistle (SASKR); [4]): 77%
- % visual injury, Ob (Russian thistle (SASKR); compound 35 g/ha, CQC-m 0 g/ha): 83%
- % visual injury, Ob (Russian thistle (SASKR); compound 70 g/ha, CQC-m 0 g/ha): 91%

Compound: Nc1c(F)c(-c2ccc3scnc3c2)nc(C(=O)O)c1Cl [compound 17]
- pest or weed control at 4.375 g/ha (kochia (KCHSC)): 85%
- pest or weed control at 8.75 g/ha (kochia (KCHSC)): 90%
- pest or weed control at 17.5 g/ha (kochia (KCHSC)): 95%
- pest or weed control at 35 g/ha (kochia (KCHSC)): 100%
- pest or weed control at 70 g/ha (kochia (KCHSC)): 100%
- pest or weed control at 4.375 g/ha (wild mustard (SINAR)): 93%
- pest or weed control at 8.75 g/ha (wild mustard (SINAR)): 93%
- pest or weed control at 17.5 g/ha (wild mustard (SINAR)): 95%
- pest or weed control at 35 g/ha (wild mustard (SINAR)): 95%
- pest or weed control at 70 g/ha (wild mustard (SINAR)): 100%
- % visual injury, Ob (spring barley (HORVS); 4.375 g/ha, applied alone): 0%
- % visual injury, Ob (spring barley (HORVS); 8.75 g/ha, applied alone): 15%
- % visual injury, Ob (spring barley (HORVS); 17.5 g/ha, applied alone): 30%
- % visual injury, Ob (spring barley (HORVS); 35 g/ha, applied alone): 40%
- % visual injury, Ob (spring barley (HORVS); 70 g/ha, applied alone): 45%
- pest or weed control at 17.5 g/ha (pigweed (AMARE); 17.5 g/ha): 100%
- pest or weed control at 35 g/ha (pigweed (AMARE); 35 g/ha): 100%

Compound: Nc1c(F)c(-c2ccc3ccoc3c2)nc(C(=O)O)c1Cl [compound 20]
- pest or weed control at 4.375 g/ha (kochia (KCHSC)): 70%
- pest or weed control at 8.75 g/ha (kochia (KCHSC)): 80%
- pest or weed control at 17.5 g/ha (kochia (KCHSC)): 85%
- pest or weed control at 35 g/ha (kochia (KCHSC)): 90%
- pest or weed control at 70 g/ha (kochia (KCHSC)): 95%
- pest or weed control at 4.375 g/ha (wild mustard (SINAR)): 60%
- pest or weed control at 8.75 g/ha (wild mustard (SINAR)): 60%
- pest or weed control at 17.5 g/ha (wild mustard (SINAR)): 83%
- pest or weed control at 35 g/ha (wild mustard (SINAR)): 80%
- pest or weed control at 70 g/ha (wild mustard (SINAR)): 93%
- % visual injury, Ob (spring barley (HORVS); 4.375 g/ha, applied alone): 0%
- % visual injury, Ob (spring barley (HORVS); 8.75 g/ha, applied alone): 10%
- % visual injury, Ob (spring barley (HORVS); 17.5 g/ha, applied alone): 20%
- % visual injury, Ob (spring barley (HORVS); 35 g/ha, applied alone): 30%
- % visual injury, Ob (spring barley (HORVS); 70 g/ha, applied alone): 40%
- % visual injury, Ob (Russian thistle (SASKR); 4.375 g/ha, applied alone): 20%
- % visual injury, Ob (Russian thistle (SASKR); 8.75 g/ha, applied alone): 40%
- % visual injury, Ob (Russian thistle (SASKR); 17.5 g/ha, applied alone): 60%
- % visual injury, Ob (Russian thistle (SASKR); 35 g/ha, applied alone): 80%
- % visual injury, Ob (Russian thistle (SASKR); 70 g/ha, applied alone): 80%
